According to paper PMC6589951 (Therapeutic Advances in Medical Oncology, 2019):
Entries after “also recorded” stand apart in the source; their conditions may differ.

Legend:
[1] = tested on: patients with advanced solid tumors; assay: exposure, dosing compliance and actions taken with study drug; type: in vivo, human
[2] = tested on: patients with advanced solid tumors; assay: phase Ib dose escalation 3+3: DLT, MTD, RP2D; type: in vivo, human
[3] = pexidartinib plasma pharmacokinetics, cycle 1 day 15; type: in vivo, human; conditions: day 15, steady state
CD14dim/CD16+ monocytes = assay: blood CD14dim/CD16+ monocyte levels; type: in vivo, human; conditions: doses as low as 800 mg daily
CSF-1R = conditions: read-out: IC50 CSF-1R; ref Investigator's Brochure, 14; cited from earlier work
osteoclast precursors = conditions: RANK-L and CSF-1 dependent manner; ref Investigator's Brochure, 14; cited from earlier work
mammary carcinoma = conditions: mouse model of mammary carcinoma, cited from earlier work
PVNS/TGCT = conditions: 1000 mg daily; cited from earlier work

| Compound | patients with paclitaxel dose reductions ([1]; Eight patients) | omitted paclitaxel doses with AEs as reason ([1]; in vivo) | patients with paclitaxel temporarily withheld ([1]; in vivo) | recommended phase II dose (RP2D) ([2]; pexidartinib in combination with weekly paclitaxel 80 mg/m^2) | maximum tolerated dose ([2]; pexidartinib up to 1600 mg/day with weekly paclitaxel) | dose at which pexidartinib plasma concentration and exposure reached saturation [3] | reduction of CD14dim/CD16+ monocytes in the peripheral blood (CD14dim/CD16+ monocytes) | dose reductions as an immediate action following pexidartinib-related AE ([1]; in vivo) | patients missing doses of pexidartinib due to AEs of any cause ([1]; in vivo) | patients with dose modifications of pexidartinib ([1]; in vivo) | patients with pexidartinib dose reductions ([1]; in vivo) | IC50 (CSF-1R) | differentiation of osteoclast precursors (osteoclast precursors) | survival of study animals (mammary carcinoma; following chemotherapy) | tumor growth (mammary carcinoma; following chemotherapy) | TAM recruitment following chemotherapy (mammary carcinoma) | Median PFS (PVNS/TGCT) | time in which PRs occurred (PVNS/TGCT) |
| --- | --- | --- | --- | --- | --- | --- | --- | --- | --- | --- | --- | --- | --- | --- | --- | --- | --- | --- |
| CC(=O)O[C@H]1C(=O)[C@@]2(C)[C@H]([C@H](OC(=O)c3ccccc3)[C@]3(O)C[C@H](OC(=O)[C@H](O)[C@@H](NC(=O)c4ccccc4)c4ccccc4)C(C)=C1C3(C)C)[C@]1(OC(C)=O)CO[C@@H]1C[C@@H]2O [paclitaxel, reference compound] | 15% | 54% | 39% | – | – | – | – | – | – | – | – | – | – | – | – | – | – | – |
| FC(F)(F)c1ccc(CNc2ccc(Cc3c[nH]c4ncc(Cl)cc34)cn2)cn1 [pexidartinib] | – | – | – | […] | no maximum tolerated dose was achieved; also recorded: No maximum tolerated dose was determined; also recorded: No maximum tolerated dose was reached | […] | near complete reduction | […] | […] | […] | […] | […] | inhibit differentiation | improved survival | slower tumor growth | abrogate TAM recruitment | not reached | […] |
